Here are results for 17 compounds from BindingDB's records for doi:10.7270/Q2183BCW (D3R/Abbott, 2020).

pIC50: −log10 of the molar value.

By pIC50 is commonly meant −log10 of the IC50, conventionally taken in molar units. A lower pIC50 goes with a large IC50.

For the assay, the target named is Cathepsin S (Homo sapiens, UniProt P25774). In words: D3R2024.
Chain of Cathepsin S (P25774 whole entry): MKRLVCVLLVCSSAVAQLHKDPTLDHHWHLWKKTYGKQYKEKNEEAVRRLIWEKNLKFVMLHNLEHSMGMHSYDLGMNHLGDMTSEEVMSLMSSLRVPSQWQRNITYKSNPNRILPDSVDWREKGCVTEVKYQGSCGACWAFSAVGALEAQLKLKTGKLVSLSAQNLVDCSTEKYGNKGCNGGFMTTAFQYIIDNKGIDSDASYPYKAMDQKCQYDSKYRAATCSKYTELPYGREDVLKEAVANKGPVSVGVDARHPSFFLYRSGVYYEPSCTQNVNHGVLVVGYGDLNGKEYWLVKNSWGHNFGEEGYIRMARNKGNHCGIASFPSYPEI
Description: D3R2024
`COC(=O)c1cccc(NC(=O)NC2CCN(c3ccnc(Nc4ccc(F)cc4)n3)C2)c1` (configuration not stated) [TCMDC-133606] gave a pIC50 of 5.00.
`COC(=O)c1cccc(NC(=O)NC2CCN(c3ccnc(Nc4ccc(OC)cc4)n3)C2)c1` (configuration not stated) [D3RKN_113] gave a pIC50 of 5.00.
Under `COC(=O)C(NC(=O)NC1CCN(c2ccnc(Nc3ccc(F)cc3)n2)C1)c1ccccc1` (configuration not stated) [D3RKN_106] stands 5.11.
Under `COc1cc(Nc2nccc(N3CCC(NC(=O)Nc4cc(C)ccc4C)C3)n2)cc(OC)c1OC` (configuration not stated) [D3RKN_101] stands 5.00; under `COc1ccc(Nc2nccc(N3CCC(NC(=O)Nc4cc(C)ccc4C)C3)n2)cc1` (configuration not stated) [D3RKN_115], 5.00.
Under `COc1cc(Nc2nccc(N3CCC(NC(=O)c4cc5ccccc5s4)C3)n2)cc(OC)c1OC` (configuration not stated) [D3RKN_104] stands 6.15; under `COC(=O)C(Cc1ccccc1)NC(=O)NC1CCN(c2ccnc(Nc3ccc(F)cc3)n2)C1` (configuration not stated) [D3RKN_109], 5.72.
The compound `COc1ccc(Nc2nccc(N3CCC(NC(=O)c4cccc(C#N)c4)C3)n2)cc1` (configuration not stated) [D3RKN_112] gave a pIC50 of 5.33.
In turn, `CCCc1ccc(S(=O)(=O)NC2CCN(c3ccnc(Nc4ccc(OC)cc4)n3)C2)cc1` (configuration not stated) [D3RKN_102] gave a pIC50 of 6.17.
For `Cc1ccc(C)c(NC(=O)NC2CCN(c3ccnc(Nc4ccc(F)cc4)n3)C2)c1` (configuration not stated) [D3RKN_108] the value was 5.00.
Regarding `COc1ccc(Nc2nccc(N3CCC(NS(=O)(=O)c4ccc(NC(C)=O)cc4)C3)n2)cc1` (configuration not stated) [D3RKN_103], the pIC50 is 7.28.
Under `COc1ccc(Nc2nccc(N3CCC(NC(=O)c4cccc(NC(C)=O)c4)C3)n2)cc1` (configuration not stated) [D3RKN_111] stands 5.62; under `COc1cc(Nc2nccc(N3CCC(NC(=O)c4cccc(NC(C)=O)c4)C3)n2)cc(OC)c1OC` (configuration not stated) [D3RKN_114], 7.27; under `COc1cc(Nc2nccc(N3CCC(NC(=O)c4cccc(C#N)c4)C3)n2)cc(OC)c1OC` (configuration not stated) [D3RKN_105], 6.74.
For `COC(=O)c1cccc(NC(=O)NC2CCN(c3ccnc(Nc4cc(OC)c(OC)c(OC)c4)n3)C2)c1` (configuration not stated) [D3RKN_99] the value was 6.47; for `N#Cc1cccc(C(=O)NC2CCN(c3ccnc(Nc4ccc(F)cc4)n3)C2)c1` (configuration not stated) [D3RKN_100], 5.24; for `O=C(NC1CCN(c2ccnc(Nc3ccc(F)cc3)n2)C1)c1cc2ccccc2s1` (configuration not stated) [D3RKN_110], 5.00.
